This assay addresses T1, LASV FD (Lassa virus fusion domain, G260-N295) (Lassa virus Josiah, UniProt P08669).
T1 construct: gene GPC
Nature of the assay: biochemical. Format: binding.

T1 sequence (P08669 260-295 limits assumed): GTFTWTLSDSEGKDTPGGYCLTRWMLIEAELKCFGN

With `CCCCCCCC/C=C\CCCCCCCC(=O)O[C@H](COC(=O)CCCCCCCCCCCCCCC)COP(=O)([O-])OCC[N+](C)(C)C` [POPC, 1-palmitoyl-2-oleoyl-glycero-3-phosphocholine], the Kd (as a rule, the concentration at which binding is half-saturated) is 657 ± 17 µM.

Source of the values: paper PMC13351859 (Biophysical Journal, 2026).
